# Results from article PMC7156724, “Potent BRD4 inhibitor suppresses cancer cell-macrophage interaction” (Nature Communications, 2020).
# Where “and” joins values, the source holds several entries; their conditions need not be identical. Equal values may be shown once.
# Experiments:
# [1] = MTS assay of non-cancerous cells; type: cell-based, human; parameters: Cell viability (Sup Fig.4a) / Cell viability (Sup Fig.4b) / Cell viability (Sup Fig.4b, 72h): unit not given here; conditions: human
# Experimental: (§1) Supplementary Figure 4. […] (a-c) MTS
# (§2) assays of HaCAT cells (immortalized human keratinocytes) treated with the indicated concentration of
# (§3) NHWD-870 for 24h (a), 48h (b) or 72h (c). Data are presented as mean ± SEM of 5 independent experiments.
# (§4) p values were calculated from two-tailed, unpaired t tests. Source data are provided as a Source Data file.
# (§5) 37℃, 5% CO2. […]
# [2] = test system: HaCAT cells (immortalized human keratinocytes); experiment: MTS assay of non-cancerous cells; type: cell-based; parameters: Cell viability (Sup Fig.4a) / Cell viability (Sup Fig.4b) / Cell viability (Sup Fig.4b, 72h): unit not given here; conditions: for Cell viability (Sup Fig.4b): 48h
# Experimental: as §1, §2, §3, §4, §5
# [3] = Metabolic stability assay, human liver microsomes; conditions: for Remaining in Human liver microsomes (Sup Fig.6e): in % (unit assumed)
# Experimental: 7. Metabolic stability assay. The metabolic profile of NHWD-870 was determined using mouse, rat, dog, monkey, and human liver microsomes using the protocols […]
# No. Compound ID Exat Mass Stock Conc.
# 1) 100 mM potassium phosphate buffer, PH7.4; 2) 10mM MgCI2
# 1) Intermediate solution: Dilute 5 μL of compound or control from stock solution (10 mM) with 45 uL DMSO,then mixed with 450 μL 1:1 Methanol/Water (Conc.: 10 0 […]
# 2) Working solution: Dilute 50 μL from intermediate solution with 450 μL 100 mM potassium phosphate buffer (Conc.: 10 μM, 4.5%MeOH)
# (3) NADPH regenerating system (final Isocitric dehydrogenase conc.= 1 unit/mL at […]
# 1) β-Nicotinamide adenine dinucleotide phosphate, Vendor: sigma Cat. No. N0505
# 2) Isocitric acid, Vendor: Sigma Cat. No. I1252
# 3) Isocitric dehydrogenase, Vendor: sigma Cat. No. I2002
# (4) Liver microsome solution preparation (final concentration o f 0.5 mg protein/mL) […]
# Cold ACN including 100 ng/mL Tolbutamide and 100 ng/mL Labetalol as internal […]
# 1) Add 10 μL compound or control working solution/well to all plates (T0, T5, T10, T20, T30, T60, NCF60) except matrix blank.
# 2) Dispense 680 μL/well microsome solution to 96-well plate as reserv oir according to […]
# plate map. Then add 80 μL/well to every plate by Apricot, incubate the mixture of microsome solution and compound at 37℃ for about 10 min.
# 3) Add 10 μL 100 mM potassium phosphate buffer/well to NCF60, incubate at 37℃, […]
# 4) After pre-warming, dispense 90 μL/well NADPH regenerating system to 96-well plate as reservoir according to the plate map. Then add 10 μL/well to every plate by Apricot to start reaction.
# 5) Incubate at 37℃, start timer 2.
# 6) Add 300 (μL/well) stop solution (cold in 4℃, including 100 ng/mL Tolbutamide and 100 ng/mL Labetalol) to terminate the reaction.
# 7) The sampling plates are shaked for approx 10 min.
# 8) Samples are centrifuged at 4000 rpm for 20 min under 4℃.
# 9) While centrifuging, load 8×new 96-well plate with 300 μL HPLC water, then transfer 100 μL supernatant, mixed for LC/MS/MS.
# Use equation of first order kinetics to calculate t1/2 and Clin t(mic): […]
# Equation of first order kinetics: […]
# BRD4 (BD1+BD2) = biological target: T1, BRD4 (BD1+BD2) (Homo sapiens, UniProt O60885); experiment: BRD4 (BD1+BD2) TR-FRET binding assay; conditions: for Biochemical activity against BRD4 (BD1 + BD2): Fig.1d, replicates
# T1 construct: purchased BPS 32612
# Text: 2. BRD4 binding assay. The inhibitory effects of NHWD-530, NHWD-540, NHWD- […]
# (BPS, Cat # 32612) per manufacturer’s instructions. […]
# [4] = human, liver microsomes, pH 7.4
structure (smiles),measurement,setting,value
Cc1nnn(C)c1-c1cnc2c3c4cnn(C)c4ccc3n([C@H](c3ccccc3)C3CCOCC3)c2c1 [NHWD-870],"viability at 24 h, 0.008 µM","[1]; HaCAT cells (immortalized human keratinocytes), 24h, 8 nM, read-out: Cell viability (Sup Fig.4a)",92.2%
same,"viability at 24 h, 0.016 µM","[1]; HaCAT cells (immortalized human keratinocytes), 24h, 16 nM, read-out: Cell viability (Sup Fig.4a)",110%
same,"viability at 24 h, 0.064 µM","[1]; HaCAT cells (immortalized human keratinocytes), 24h, 64 nM, read-out: Cell viability (Sup Fig.4a)",103%
same,"viability at 24 h, 0.25 µM","[1]; HaCAT cells (immortalized human keratinocytes), 24h, 250 nM, read-out: Cell viability (Sup Fig.4a)",104%
same,"viability at 24 h, 0.5 µM","[1]; HaCAT cells (immortalized human keratinocytes), 24h, 500 nM, read-out: Cell viability (Sup Fig.4a)",100%
same,"viability at 48 h, 0.032 µM","[1]; HaCAT cells (immortalized human keratinocytes), 48h, 32 nM, read-out: Cell viability (Sup Fig.4b)",91%
same,"viability at 48 h, 0.064 µM","[1]; HaCAT cells (immortalized human keratinocytes), 48h, 64 nM, read-out: Cell viability (Sup Fig.4b)",83.9%
same,"viability at 48 h, 0.25 µM","[1]; HaCAT cells (immortalized human keratinocytes), 48h, 250 nM, read-out: Cell viability (Sup Fig.4b)",88.5%
same,"viability at 48 h, 0.5 µM","[1]; HaCAT cells (immortalized human keratinocytes), 48h, 500 nM, read-out: Cell viability (Sup Fig.4b)",86.7%
same,"viability at 48 h, 1 µM","[1]; HaCAT cells (immortalized human keratinocytes), 48h, 1000 nM, read-out: Cell viability (Sup Fig.4b)",87.1%
same,"viability at 72 h, 0.008 µM","[1]; HaCAT cells (immortalized human keratinocytes), 72h, 8 nM, read-out: Cell viability (Sup Fig.4b, 72h)",99.5%
same,"viability at 72 h, 0.016 µM","[1]; HaCAT cells (immortalized human keratinocytes), 72h, 16 nM, read-out: Cell viability (Sup Fig.4b, 72h)",90.2%
same,"viability at 72 h, 0.032 µM","[1]; HaCAT cells (immortalized human keratinocytes), 72h, 32 nM, read-out: Cell viability (Sup Fig.4b, 72h)",86.9%
same,"viability at 72 h, 0.064 µM","[1]; HaCAT cells (immortalized human keratinocytes), 72h, 64 nM, read-out: Cell viability (Sup Fig.4b, 72h)",89.6%
same,"viability at 72 h, 0.25 µM","[1]; HaCAT cells (immortalized human keratinocytes), 72h, 250 nM, read-out: Cell viability (Sup Fig.4b, 72h)",78.9%
same,"viability at 72 h, 0.5 µM","[1]; HaCAT cells (immortalized human keratinocytes), 72h, 500 nM, read-out: Cell viability (Sup Fig.4b, 72h)",87.1%
same,"viability at 72 h, 1 µM","[1]; HaCAT cells (immortalized human keratinocytes), 72h, 1000 nM, read-out: Cell viability (Sup Fig.4b, 72h)",78.4%
same,"viability at 24 h, 1 µM","[1]; HaCAT cells (immortalized keratinocytes), 24h, 1000 nM, read-out: Cell viability (Sup Fig.4a)",108%
same,"viability at 48 h, 0.008 µM","[1]; HaCAT cells (immortalized keratinocytes), 48h, 8 nM, read-out: Cell viability (Sup Fig.4b)",86.6%
same,"viability at 48 h, 0.016 µM","[1]; HaCAT cells (immortalized keratinocytes), 48h, 16 nM, read-out: Cell viability (Sup Fig.4b)",89.9%
same,effect on growth of HaCAT cells,"[2]; 24h, 48h or 72h",minimal effects
same,Cell viability (Sup Fig.4a),"[2]; 24h, 8 nM, 0.008 µM",96.6 and 101.8 and 89.4 and 88.3
same,Cell viability (Sup Fig.4a),"[2]; 24h, 16 nM, 0.016 µM",98.4 and 107.6 and 95.8
same,Cell viability (Sup Fig.4a),"[2]; 24h, 32 nM, 0.032 µM",83 and 93.4 and 105.5 and 99.6 and 95.5
same,Cell viability (Sup Fig.4a),"[2]; 24h, 64 nM, 0.064 µM",112.7 and 111.1 and 101.6 and 109.8
same,Cell viability (Sup Fig.4a),"[2]; 24h, 250 nM, 0.25 µM",109.5 and 106.5 and 97.6 and 108.3
same,Cell viability (Sup Fig.4a),"[2]; 24h, 500 nM, 0.5 µM",119.6 and 110.7 and 109.3 and 105
same,Cell viability (Sup Fig.4a),"[2]; 24h, 1000 nM, 1 µM",106.7 and 106.8 and 109.4 and 111.5
same,Cell viability (Sup Fig.4b),"[2]; 8 nM, 0.008 µM",89.1 and 94.5 and 96.5
same,Cell viability (Sup Fig.4b),"[2]; 16 nM, 0.016 µM",85.3 and 85.9 and 93.1 and 85.1
same,Cell viability (Sup Fig.4b),"[2]; 32 nM, 0.032 µM",88.3 and 88.2
same,Cell viability (Sup Fig.4b),"[2]; 64 nM, 0.064 µM",94.7 and 90.4 and 88.4
same,Cell viability (Sup Fig.4b),"[2]; 250 nM, 0.25 µM",97.7 and 92.7 and 91.5
same,Cell viability (Sup Fig.4b),"[2]; 500 nM, 0.5 µM",88 and 95 and 91.6 and 82.3
same,Cell viability (Sup Fig.4b),"[2]; 1000 nM, 1 µM",88.6 and 81.5 and 80.9 and 84.8
same,"Cell viability (Sup Fig.4b, 72h)","[2]; 8 nM, 0.008 µM",90.9 and 86.4 and 92.1 and 95.1
same,"Cell viability (Sup Fig.4b, 72h)","[2]; 16 nM, 0.016 µM",95.9 and 89.1 and 93.1
same,"Cell viability (Sup Fig.4b, 72h)","[2]; 32 nM, 0.032 µM",88.4 and 97.6 and 92.8 and 90.1
same,"Cell viability (Sup Fig.4b, 72h)","[2]; 64 nM, 0.064 µM",99.6 and 89.5 and 92.9
same,"Cell viability (Sup Fig.4b, 72h)","[2]; 250 nM, 0.25 µM",93.7 and 89.8 and 88
same,"Cell viability (Sup Fig.4b, 72h)","[2]; 500 nM, 0.5 µM",98.2 and 93.6 and 82.4 and 89.4
same,"Cell viability (Sup Fig.4b, 72h)","[2]; 1000 nM, 1 µM",74 and 86.3 and 92.4
same,Remaining (T=60min),[3]; human liver microsomes,23.6%
same,Remaining (*NCF=60min),"[3]; human liver microsomes, no cofactor",74.4%
same,CLint scaled at 1 µM,[3]; [4],45.3 mL/min/kg
same,half-life at 1 µM,[3]; [4],27.6 min
same,microsomal CLint at 1 µM,"[3]; human, microsomes, pH 7.4",50.3 µL/min/mg
same,half-life at 1 µM,"[3]; mouse, rat, dog, monkey, human, liver microsomes, pH 7.4",21 to 39 min
same,Remaining in Human liver microsomes (Sup Fig.6e),[3]; time 0,100
same,Remaining in Human liver microsomes (Sup Fig.6e),[3]; time 5,96.274
same,Remaining in Human liver microsomes (Sup Fig.6e),[3]; time 10,76.421
same,Remaining in Human liver microsomes (Sup Fig.6e),[3]; time 20,52.125
same,Remaining in Human liver microsomes (Sup Fig.6e),[3]; time 30,39.904
same,Remaining in Human liver microsomes (Sup Fig.6e),[3]; time 60,23.628
same,Biochemical activity against BRD4 (BD1 + BD2),BRD4 (BD1+BD2); concentration(nM) 0.0021442,0.8628 and 1.4579
same,Biochemical activity against BRD4 (BD1 + BD2),BRD4 (BD1+BD2); concentration(nM) 0.061236,16.5754 and 12.5588
same,Biochemical activity against BRD4 (BD1 + BD2),BRD4 (BD1+BD2); concentration(nM) 0.103,20.2946 and 25.6828
same,Biochemical activity against BRD4 (BD1 + BD2),BRD4 (BD1+BD2); concentration(nM) 0.59176,60.3038 and 63.4692
same,Biochemical activity against BRD4 (BD1 + BD2),BRD4 (BD1+BD2); concentration(nM) 1.19382,79.3053 and 83.6424
same,Biochemical activity against BRD4 (BD1 + BD2),BRD4 (BD1+BD2); concentration(nM) 1.79588,95.9066 and 95.1156
same,Biochemical activity against BRD4 (BD1 + BD2),BRD4 (BD1+BD2); concentration(nM) 2.39794,100.74 and 99.5542
same,Biochemical activity against BRD4 (BD1 + BD2),BRD4 (BD1+BD2); concentration(nM) 3,101.339 and 101.804
same,IC50,"BRD4 (BD1+BD2); average IC50, nM, read-out: IC50, biochemical activity against BRD4 (BD1 + BD2)",2.7 nM and 2.72 nM
